System: peritoneal derived inflammatory cells (PDICs)
Assay: CD86 on CD19+ cells in cultured peritoneal derived inflammatory cells (PDICs), wild type
Format: cell-based, mouse
Details: for number of CD19+ CD86high lymphocytes: 24 h, p<0.001
Description: Peritoneal derived inflammatory cells (PDICs) were harvested from the peritoneal cavity of thioglycolate-stimulated wild-type and TIRAP−/− deficient mice. PDIC cultures contain an admixture of inflammatory cells, including CD19+ B cells (40). TIRAP deficient mice were a gift from Dr. Ruslan Medzhitov (Yale University, New Haven, CT). PDICs were harvested on day 4 after i.p. injection of 1 ml of thioglycolate medium (Millipore, Billerica, MA, USA). Mice were euthanized, and the peritoneal cavity was washed 3-4 times with 3 mLs of Dulbecco's modified medium containing 10% fetal calf serum. A 3 mL syringe with an 18-gauge needle was used to inject the peritoneal cavity and retrieve the medium containing PDICs. Harvested cells were centrifuged at 250 g for 5 minutes, re-suspended in 5 mL of media and then filtered through a 40 μm strainer. Cells were plated at ˜1.5 million cells/mL in 12 or 24 well plates. Primary splenic derived B lymphocytes were isolated with the MagniSort Mouse B cell Enrichment Kit (Invitrogen, Carlsbad, CA, USA) according to manufacturer's instruction and plated in 96 well plates at 1 million cells/ml. The purity of isolated B cells was checked by flow cytometry and was >85% in all reported experiments. Both PDICs and primary B lymphocytes were cultured in DMEM with 10% FCS, 1 mM sodium pyruvate, penicillin/streptomycin (GIBCO, 1×), 2 mM L-Glutamine, 10 mM Hepes and 55 μM 2-Mercaptoethanol.
We used LPS-EB ultrapure lipopolysaccharide (InvivoGen, San Diego, CA, USA) or necrotic cell extracts (NCEs) to stimulate the cell cultures. For stimulation with LPS, LPS was added at 100 ng/mL at the time of plating. NCEs were prepared from H9c2 cells, in a similar manner to the protocol described for mouse heart and mouse liver extracts (18). For stimulation, NCEs were added at a final concentration of 10 μg/mL at the time the cells were plated. LPS and NCE stimulation were performed in the presence and absence of Pirfenidone for 24 hours. […]

`Cc1ccc(=O)n(-c2ccccc2)c1` [Pirfenidone, 5 methyl-1-phenyl-2-[H] pyridone] was tested, and the “LPS induced expression of CD86 on B cells” value (B lymphocytes from the peritoneum, 24 hours, LPS + 0.5% pirfenidone) was “significantly reduced”, the “number of CD19+ CD86high lymphocytes” value (PDICs stimulated with LPS) was “significantly attenuated” and the “number of CD19+ CD86high lymphocytes” value (PDICs stimulated with cytosolic extracts from necrotic cells) was “significantly attenuated”.

From patent publication US12365651B2, “Use of pirfenidone and derivatives for modulation of B lymphocyte activity and organ protection from acute tissue damage” (Washington University, priority 2017, dated 2025)
